Patent publication US7354956B2, “Composition containing a sapogenin and use thereof” (L'Oreal, priority 2002, dated 2008)
Like-named read-outs stand apart in the source and are kept apart here.

Tested on: nerve/muscle (motor plate) junction, phrenic nerve/diaphragm preparation (striated muscle)
Assay: Muscle-relaxant effect on contractions of isolated rat phrenic nerve/diaphragm preparation induced by indirect stimulation via the phrenic nerve
Conditions: for inhibition at 10 µM / IC50: Rattus norvegicus; for inhibition at 10 µM: read-out: % INHIBITION OF CONTRACTIONS; for IC50: cumulative concentrations 10^−10 M to 10^−5 M, read-out: IC50 (concentration to obtain 50% of the inhibitory effect)
Procedure: Hecogenin acetate and diosgenin, sold by Sigma, were tested on a model of nerve/muscle (motor plate) junction obtained in a phrenic nerve/diaphragm preparation isolated from rat (striated muscle) (Pollard B. J. et al, Br. J. Anaesth., 1988, 61, 419-424).
The phrenic nerve and the diaphragm are carefully isolated and placed in a 50 ml tank filled with survival liquid (Krebs-Henseleit liquid) maintained at a temperature of 37° C. and oxygenated with an oxygen/CO2 mixture (95/5).
The tension variations of the diaphragm are recorded with an initial pre-load of several grams.
After a relaxation period of 30 minutes, the diaphragm is stimulated indirectly via the phrenic nerve. […]

[1] = contractions induced by indirect stimulation via phrenic nerve

| SMILES | inhibition at 10 µM (concentration 10^−5 M, contractions induced by indirect stimulation via phrenic nerve) [%] | IC50 [1] [µM] | inhibition at 10 µM [%] | inhibition of the contractions induced by the indirect stimulations (concentration 10^−4 M) | effect on the contractions induced by the indirect stimulations (concentration 10^−5 M) |
| --- | --- | --- | --- | --- | --- |
| C[C@@H]1CC[C@@]2(OC1)O[C@H]1C[C@H]3[C@@H]4CC=C5C[C@@H](O)CC[C@]5(C)[C@H]4CC[C@]3(C)[C@H]1[C@@H]2C [Diosgenin] | 100 | 1 |  |  |  |
| CC(=O)O[C@H]1CC[C@@]2(C)[C@@H](CC[C@@H]3[C@@H]2CC(=O)[C@]2(C)[C@@H]4[C@H](C[C@@H]32)O[C@]2(CC[C@@H](C)CO2)[C@H]4C)C1 [Hecogenin acetate] |  | 2.5 | 100 |  |  |
| CCN(CCCc1ccccc1)CCCc1ccccc1 [alverine, reference compound] |  |  |  | completely inhibits | no effect |
